Data from US6054435A, “6-O-substituted macrolides having antibacterial activity” (priority 1999, dated 2000).
Values after ≈ are worked out from the molar mass of the structure shown.

Legend:
Experiment in all cases: in vitro antibacterial activity (MIC), agar dilution
Format in all cases: cell-based
[1] = system: Candida albicans CCH 442; details: organism code TT; BHI agar, 35-37° C., 20 to 24 hours; unit assumed
Protocol: (§1) Representative compounds of the present invention were assayed in vitro for antibacterial activity as follows: Twelve petri dishes containing successive aqueous dilutions of the test compound mixed with 10 mL of sterilized Brain Heart Infusion (BHI) agar (Difco 0418-01-5) were prepared. Each plate was inoculated with 1:100 (or 1:10 for slow-growing strains, such as Micrococcus and Streptococcus) dilutions of up to 32 different microorganisms, using a Steers replicator block. […] In addition, a control plate, using BHI agar containing no test compound, was prepared and incubated at the beginning and end of each test.
(§2) An additional plate containing a compound having known susceptibility patterns for the organisms being tested and belonging to the same antibiotic class as the test compound was also prepared and incubated as a further control, as well as to provide test-to-test comparability.
(§3) After incubation, each plate was visually inspected. The minimum inhibitory concentration (MIC) was defined as the lowest concentration of drug yielding no growth, a slight haze, or sparsely isolated colonies on the inoculum spot as compared to the growth control.

[2] = system: Streptococcus Pneumonia GYR 1171; details: organism code YY; BHI agar, 35-37° C., 20 to 24 hours; unit assumed
Protocol: as §1, §2, §3

[3] = system: Streptococcus pyogenes EES61; details: organism code LL; BHI agar, 35-37° C., 20 to 24 hours; unit assumed
Protocol: as §1, §2, §3

[4] = system: Staphylococcus aureus A-5278; details: organism code CC; BHI agar, 35-37° C., 20 to 24 hours; unit assumed
Protocol: as §1, §2, §3

[5] = system: Micrococcus luteus ATCC 4698; details: organism code PP; BHI agar, 35-37° C., 20 to 24 hours; unit assumed
Protocol: as §1, §2, §3

[6] = system: Staphylococcus aureus CMX 642A; details: organism code DD; BHI agar, 35-37° C., 20 to 24 hours; unit assumed
Protocol: as §1, §2, §3

[7] = system: Micrococcus luteus ATCC 9341; details: organism code OO; BHI agar, 35-37° C., 20 to 24 hours; unit assumed
Protocol: as §1, §2, §3

[8] = system: Staphylococcus aureus 1775; details: organism code GG; BHI agar, 35-37° C., 20 to 24 hours; unit assumed
Protocol: as §1, §2, §3

[9] = system: Streptococcus pyogenes PIU 2548; details: organism code NN; BHI agar, 35-37° C., 20 to 24 hours; unit assumed
Protocol: as §1, §2, §3

[10] = system: Staphylococcus aureus ATCC 6538P; details: organism code AA; BHI agar, 35-37° C., 20 to 24 hours; unit assumed
Protocol: as §1, §2, §3

[11] = system: Streptococcus agalactiae CMX 508; details: organism code KK; BHI agar, 35-37° C., 20 to 24 hours; unit assumed
Protocol: as §1, §2, §3

[12] = system: Streptococcus Pneumonia 5649; details: organism code ZZA; BHI agar, 35-37° C., 20 to 24 hours; unit assumed
Protocol: as §1, §2, §3

[13] = system: Mycobacterium smegmatis ATCC 114; details: organism code UU; BHI agar, 35-37° C., 20 to 24 hours; unit assumed
Protocol: as §1, §2, §3

[14] = system: Streptococcus bovis A-5169; details: organism code JJ; BHI agar, 35-37° C., 20 to 24 hours; unit assumed
Protocol: as §1, §2, §3

[15] = system: Staphylococcus epidermidis 3519; details: organism code HH; BHI agar, 35-37° C., 20 to 24 hours; unit assumed
Protocol: as §1, §2, §3

[16] = system: Streptococcus pyogenes 930; details: organism code MM; BHI agar, 35-37° C., 20 to 24 hours; unit assumed
Protocol: as §1, §2, §3

[17] = system: Escherichia coli JUHL; details: organism code QQ; BHI agar, 35-37° C., 20 to 24 hours; unit assumed
Protocol: as §1, §2, §3

[18] = system: Staphylococcus aureus NCTC10649M; details: organism code EE; BHI agar, 35-37° C., 20 to 24 hours; unit assumed
Protocol: as §1, §2, §3

[19] = system: Streptococcus Pneumonia 5979; details: organism code ZZ; BHI agar, 35-37° C., 20 to 24 hours; unit assumed
Protocol: as §1, §2, §3

[20] = system: Nocardia Asteroides ATCC9970; details: organism code VV; BHI agar, 35-37° C., 20 to 24 hours; unit assumed
Protocol: as §1, §2, §3

[21] = system: Streptococcus Pneumonia ATCC6303; details: organism code XX; BHI agar, 35-37° C., 20 to 24 hours; unit assumed
Protocol: as §1, §2, §3

[22] = system: Escherichia coli SS; details: organism code RR; BHI agar, 35-37° C., 20 to 24 hours; unit assumed
Protocol: as §1, §2, §3

[23] = system: Staphylococcus aureus CMX 553; details: organism code FF; BHI agar, 35-37° C., 20 to 24 hours; unit assumed
Protocol: as §1, §2, §3

[24] = system: Staphylococcus aureus A5177; details: organism code BB; BHI agar, 35-37° C., 20 to 24 hours; unit assumed
Protocol: as §1, §2, §3

[25] = system: Enterococcus faecium ATCC 8043; details: organism code II; BHI agar, 35-37° C., 20 to 24 hours; unit assumed
Protocol: as §1, §2, §3

[26] = system: Escherichia coli DC-2; details: organism code SS; BHI agar, 35-37° C., 20 to 24 hours; unit assumed
Protocol: as §1, §2, §3

[27] = system: Haemophilis Influenzae DILL AMP R; details: organism code WW; BHI agar, 35-37° C., 20 to 24 hours; unit assumed
Protocol: as §1, §2, §3

Row | Compound | MIC [1] | MIC [2] | MIC [3] | MIC [4] | MIC [5] | MIC [6] | MIC [7] | MIC [8] | MIC [9] | MIC [10] | MIC [11] | MIC [13] | MIC [14] | MIC [15] | MIC [16] | MIC [17] | MIC [18] | MIC [19] | MIC [20] | MIC [21] | also measured
1 | CC[C@H]1OC(=O)[C@H](C)C(=O)[C@H](C)[C@@H](O[C@@H]2O[C@H](C)C[C@H](N(C)C)[C@H]2O)[C@](C)(OC/C=C/c2cncc(-c3cccnc3)c2)C[C@@H](C)C(=O)[C@H](C)[C@H]2NC(=O)O[C@@]21C [Example 47] | > 100 µg/mL | 0.008 µg/mL (≈ 0.0101 µM) | 0.02 µg/mL (≈ 0.0252 µM) | > 100 µg/mL | 0.2 µg/mL (≈ 0.252 µM) | 0.05 µg/mL (≈ 0.0631 µM) | 0.01 µg/mL (≈ 0.0126 µM) | > 100 µg/mL | 0.2 µg/mL (≈ 0.252 µM) | 0.05 µg/mL (≈ 0.0631 µM) | 0.01 µg/mL (≈ 0.0126 µM) | 0.78 µg/mL (≈ 0.984 µM) | 0.01 µg/mL (≈ 0.0126 µM) | 0.1 µg/mL (≈ 0.126 µM) | 50 µg/mL (≈ 63.1 µM) | 50 µg/mL (≈ 63.1 µM) | 0.1 µg/mL (≈ 0.126 µM) | > 128 µg/mL | 0.05 µg/mL (≈ 0.0631 µM) | 0.008 µg/mL (≈ 0.0101 µM) | MIC [12]: 0.5 µg/mL (≈ 0.631 µM); MIC [22]: 0.39 µg/mL (≈ 0.492 µM); MIC [23]: 0.05 µg/mL (≈ 0.0631 µM); MIC [24]: 0.05 µg/mL (≈ 0.0631 µM); MIC [25]: 0.05 µg/mL (≈ 0.0631 µM); MIC [26]: 25 µg/mL (≈ 31.5 µM)
2 | CC[C@H]1OC(=O)[C@H](C)C(=O)[C@H](C)[C@@H](O[C@@H]2O[C@H](C)C[C@H](N(C)C)[C@H]2O)[C@](C)(OC/C=C/c2cncc(-c3cncnc3)c2)C[C@@H](C)C(=O)[C@H](C)[C@H]2NC(=O)O[C@@]21C [Example 45] | > 100 µg/mL | ≤ 0.004 µg/mL | ≤ 0.005 µg/mL | > 100 µg/mL | 0.1 µg/mL (≈ 0.126 µM) | 0.1 µg/mL (≈ 0.126 µM) | 0.01 µg/mL (≈ 0.0126 µM) | > 100 µg/mL | 0.39 µg/mL (≈ 0.491 µM) | 0.05 µg/mL (≈ 0.063 µM) | ≤ 0.005 µg/mL | 1.56 µg/mL (≈ 1.96 µM) | ≤ 0.005 µg/mL | 0.1 µg/mL (≈ 0.126 µM) | 25 µg/mL (≈ 31.5 µM) | 50 µg/mL (≈ 63 µM) | 0.2 µg/mL (≈ 0.252 µM) | > 128 µg/mL | 0.05 µg/mL (≈ 0.063 µM) | 0.008 µg/mL (≈ 0.0101 µM) | MIC [27]: 2 µg/mL (≈ 2.52 µM); MIC [22]: 0.39 µg/mL (≈ 0.491 µM); MIC [23]: 0.05 µg/mL (≈ 0.063 µM); MIC [24]: 0.05 µg/mL (≈ 0.063 µM); MIC [25]: 0.05 µg/mL (≈ 0.063 µM); MIC [26]: 25 µg/mL (≈ 31.5 µM)
3 | CC[C@H]1OC(=O)[C@H](C)C(=O)[C@H](C)[C@@H](O[C@@H]2O[C@H](C)C[C@H](N(C)C)[C@H]2O)[C@](C)(OC/C=C/c2cncc(-c3ccccc3)c2)C[C@@H](C)C(=O)[C@H](C)[C@H]2NC(=O)O[C@@]21C [Example 42] | > 100 µg/mL | 0.03 µg/mL (≈ 0.0379 µM) | 0.02 µg/mL (≈ 0.0253 µM) | > 100 µg/mL | 0.2 µg/mL (≈ 0.253 µM) | 0.2 µg/mL (≈ 0.253 µM) | 0.02 µg/mL (≈ 0.0253 µM) | > 100 µg/mL | 0.2 µg/mL (≈ 0.253 µM) | 0.1 µg/mL (≈ 0.126 µM) | 0.02 µg/mL (≈ 0.0253 µM) | 0.39 µg/mL (≈ 0.492 µM) | 0.02 µg/mL (≈ 0.0253 µM) | 0.2 µg/mL (≈ 0.253 µM) | 50 µg/mL (≈ 63.1 µM) | 100 µg/mL (≈ 126 µM) | 0.2 µg/mL (≈ 0.253 µM) | 32 µg/mL (≈ 40.4 µM) | 0.2 µg/mL (≈ 0.253 µM) | 0.03 µg/mL (≈ 0.0379 µM) | MIC [27]: 4 µg/mL (≈ 5.05 µM); MIC [22]: 0.78 µg/mL (≈ 0.985 µM); MIC [23]: 0.1 µg/mL (≈ 0.126 µM); MIC [24]: 0.1 µg/mL (≈ 0.126 µM); MIC [25]: 0.05 µg/mL (≈ 0.0631 µM); MIC [26]: 50 µg/mL (≈ 63.1 µM)
4 | CC[C@H]1OC(=O)[C@H](C)C(=O)[C@H](C)[C@@H](O[C@@H]2O[C@H](C)C[C@H](N(C)C)[C@H]2O)[C@](C)(OCC#Cc2ccc(-c3cccc(F)c3)s2)C[C@@H](C)C(=O)[C@H](C)[C@H]2NC(=O)O[C@@]21C [Example 15] | > 100 µg/mL | 0.015 µg/mL (≈ 0.0185 µM) | 0.05 µg/mL (≈ 0.0615 µM) | 50 µg/mL (≈ 61.5 µM) | 0.1 µg/mL (≈ 0.123 µM) | 0.2 µg/mL (≈ 0.246 µM) | 0.05 µg/mL (≈ 0.0615 µM) | 50 µg/mL (≈ 61.5 µM) | 0.2 µg/mL (≈ 0.246 µM) | 0.1 µg/mL (≈ 0.123 µM) | 0.05 µg/mL (≈ 0.0615 µM) | 0.39 µg/mL (≈ 0.48 µM) | 0.05 µg/mL (≈ 0.0615 µM) | 0.2 µg/mL (≈ 0.246 µM) | 3.1 µg/mL (≈ 3.81 µM) | > 100 µg/mL | 0.2 µg/mL (≈ 0.246 µM) | 0.25 µg/mL (≈ 0.308 µM) | 0.2 µg/mL (≈ 0.246 µM) | 0.015 µg/mL (≈ 0.0185 µM) | MIC [12]: 0.25 µg/mL (≈ 0.308 µM); MIC [27]: 2 µg/mL (≈ 2.46 µM); MIC [22]: 0.39 µg/mL (≈ 0.48 µM); MIC [23]: 0.1 µg/mL (≈ 0.123 µM); MIC [24]: 0.1 µg/mL (≈ 0.123 µM); MIC [26]: > 100 µg/mL
